“And” between values parts separate entries of the source, which are not always exact repeats. Equal values may be shown once. Inconclusive results and toxic doses are left out. Rule for the calls: active = survival T/C of 150% or more; inactive = T/C below 125% in these data.
Tested on: P388 leukemia ip, CD2F1 mice, survival T/C
Assay: NCI In Vivo Anticancer Drug Screen. Data for tumor model P388 Leukemia (intraperitoneal) in CD2F1 (CDF1) mice
Conditions: endpoint: median survival time, higher = longer survival
Outline: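 Mice carrying the transplanted tumor received test compound or vehicle. Survival was recorded in each group, and the value is the treated-group measurement divided by that of the vehicle-treated control group.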

[1] = dose: 50.0 mg/kg/injection, schedule: Q01DX009 (ip), vehicle: saline with Tween-80
[2] = dose: 100.0 mg/kg/injection, schedule: Q01DX009 (ip), vehicle: saline with Tween-80
[3] = dose: 200.0 mg/kg/injection, schedule: Q01DX009 (ip), vehicle: saline with Tween-80
[4] = dose: 60.0 mg/kg/injection, schedule: Q01DX005 (ip), vehicle: saline with Tween-80
[5] = dose: 120.0 mg/kg/injection, schedule: Q01DX005 (ip), vehicle: saline with Tween-80
[6] = dose: 240.0 mg/kg/injection, schedule: Q01DX005 (ip), vehicle: saline with Tween-80
[7] = dose: 50.0 mg/kg/injection, schedule: Q01DX005 (ip), vehicle: saline with Tween-80
[8] = dose: 100.0 mg/kg/injection, schedule: Q01DX005 (ip), vehicle: saline with Tween-80
[9] = dose: 200.0 mg/kg/injection, schedule: Q01DX005 (ip), vehicle: saline with Tween-80
[10] = dose: 50.0 mg/kg/injection, schedule: Q01DX005 (ip), vehicle: Klucel (hydroxypropylcellulose) (HPC)
[11] = dose: 100.0 mg/kg/injection, schedule: Q01DX005 (ip), vehicle: Klucel (hydroxypropylcellulose) (HPC)
[12] = dose: 100.0 mg/kg/injection, schedule: Q04DX003 (ip), vehicle: saline
[13] = dose: 200.0 mg/kg/injection, schedule: Q04DX003 (ip), vehicle: saline
[14] = dose: 200.0 mg/kg/injection, schedule: Q01DX005 (ip), vehicle: Klucel (hydroxypropylcellulose) (HPC)
[15] = dose: 60.0 mg/kg/injection, schedule: Q01DX005 (ip), vehicle: Klucel (hydroxypropylcellulose) (HPC)
[16] = dose: 50.0 mg/kg/injection, schedule: Q01DX009 (ip), vehicle: saline
[17] = dose: 100.0 mg/kg/injection, schedule: Q01DX009 (ip), vehicle: saline
[18] = dose: 200.0 mg/kg/injection, schedule: Q01DX009 (ip), vehicle: saline

Measured: T/C

COc1cc(C)ccc1C1OC(=O)c2c1ccc(OC)c2OC (stereo not drawn)
inactive: dose: 25.0 mg/kg/injection, schedule: Q01DX009 (ip), vehicle: saline with Tween-80 106 % of control | [1] 101 % of control | [2] 97 % of control | [3] 108 % of control

O=[N+]([O-])c1ccc(/C=C/C=C\c2ccc(S(=O)(=O)F)cc2Cl)cc1
inactive: [4] 94 % of control | [5] 96 % of control | [6] 95 % of control

C=CN1C(=O)N(C=C)C(C)(CC(C)C)C1=O (stereo not drawn)
inactive: [1] 100 % of control | [2] 100 % of control | [3] 112 % of control

CCOC(=O)c1cc(CC)sc1N
inactive: [2] 90 % of control | [3] 90 % of control

CCN(CC)Cc1c(OC)ccc2[nH]c3c4ccc(Cl)cc4ncc3c12
inactive: dose: 25.0 mg/kg/injection, schedule: Q01DX005 (ip), vehicle: saline with Tween-80 109 % of control | [7] 101 % of control | [8] 106 % of control | [9] 112 % of control

O=C(C=C(C(F)(F)F)C(F)(F)F)c1c2ccccc2cc2ccccc12
inactive: dose: 0.78 mg/kg/injection, schedule: Q01DX009 (ip), vehicle: DMSO 91 % of control | dose: 1.56 mg/kg/injection, schedule: Q01DX009 (ip), vehicle: DMSO 98 % of control | dose: 3.12 mg/kg/injection, schedule: Q01DX009 (ip), vehicle: DMSO 87 % of control and 89 % of control

CC[C@]12C=CCN3CC[C@@]4(c5ccc(OC)cc5N(C)[C@H]4[C@@](O)(C(=O)OC)[C@@H]1OC(C)=O)[C@@H]32
inactive: [10] 98 % of control | [11] 97 % of control

[Cl][Pd][Cl].[NH-]C(C(=O)O)c1ccccc1.[NH-]C(C(=O)O)c1ccccc1 (stereo not drawn)
inactive: [12] 103 % of control | [13] 97 % of control | dose: 400.0 mg/kg/injection, schedule: Q04DX003 (ip), vehicle: saline 109 % of control

CCOC(=O)c1c(-c2ccccc2)oc2ccc(NS(=O)(=O)c3ccccc3)cc12
inactive: dose: 100.0 mg/kg/injection, schedule: Q01DX001 (ip), vehicle: saline with Tween-80 95 % of control | dose: 200.0 mg/kg/injection, schedule: Q01DX001 (ip), vehicle: saline with Tween-80 104 % of control | dose: 400.0 mg/kg/injection, schedule: Q01DX001 (ip), vehicle: saline with Tween-80 95 % of control

CCCN(CCC)C(=O)O[Si](C)(C)C(C)(C)C
inactive: [1] 105 % of control | [2] 97 % of control | [3] 105 % of control

[Fe+2].[Fe+2].c1ccc2c(c1)-c1nc-2nc2[n-]c(nc3nc(nc4[n-]c(n1)c1ccccc41)-c1ccccc1-3)c1cc3c4nc5nc(nc6[n-]c(nc7nc(nc([n-]4)c3cc21)-c1ccccc1-7)c1ccccc61)-c1ccccc1-5
inactive: [10] 100 % of control | [11] 110 % of control | [14] 106 % of control

FC(F)(F)Sc1c(SC(F)(F)F)c(SC(F)(F)F)n(-n2c(SC(F)(F)F)c(SC(F)(F)F)c(SC(F)(F)F)c2SC(F)(F)F)c1SC(F)(F)F
inactive: dose: 15.0 mg/kg/injection, schedule: Q01DX005 (ip), vehicle: Klucel (hydroxypropylcellulose) (HPC) 104 % of control | dose: 30.0 mg/kg/injection, schedule: Q01DX005 (ip), vehicle: Klucel (hydroxypropylcellulose) (HPC) 106 % of control | [15] 103 % of control and 97 % of control

CC12CCC(=O)N1c1ccccc1N2 (stereo not drawn)
inactive: [4] 98 % of control | [5] 94 % of control | [6] 102 % of control

N=c1ccc(=Nc2ccc(N)c3c(O)c4ccccc4c(O)c23)c2c(=O)c3ccccc3c(=O)c1=2
inactive: [7] 103 % of control | [8] 94 % of control | [9] 92 % of control

O=C(CO)CC(=O)CCC(=O)Nc1cccc([N+](=O)[O-])c1
inactive: [4] 105 % of control | [5] 111 % of control | [6] 105 % of control

CCn1c(Cl)c(/C=N\Nc2ccc([N+](=O)[O-])cc2)c2ccccc21
inactive: dose: 100.0 mg/kg/injection, schedule: Q01DX001 (ip), vehicle: saline 94 % of control | dose: 200.0 mg/kg/injection, schedule: Q01DX001 (ip), vehicle: saline 95 % of control | dose: 400.0 mg/kg/injection, schedule: Q01DX001 (ip), vehicle: saline 95 % of control

CCN(CCOC(=O)Nc1ccc(F)cc1)c1ccccc1
inactive: [4] 111 % of control | [5] 96 % of control | [6] 94 % of control

O=c1/c(=C/C=C/c2ccccc2)sc2nc3ccccc3n12
inactive: [7] 107 % of control | [8] 106 % of control | [9] 92 % of control

CNC(=O)OCc1c(COC(=O)NC)c(-c2cccs2)n2c1CCC2
inactive: dose: 12.5 mg/kg/injection, schedule: Q01DX005 (ip), vehicle: saline with Tween-80 122 % of control | [7] 104 % of control

CC(C)Nc1nc(Cl)nc(Cl)n1
inactive: [10] 98 % of control | [11] 93 % of control

CNC(=O)CCl
inactive: [12] 99 % of control | [13] 99 % of control

CCCCCCCCCCCCCCCC[N+](C)(C)C
inactive: dose: 1.56 mg/kg/injection, schedule: Q01DX009 (ip), vehicle: saline 99 % of control and 115 % of control and 120 % of control | dose: 1.56 mg/kg/injection, schedule: Q04DX003 (ip), vehicle: saline with Tween-80 100 % of control | dose: 2.0 mg/kg/injection, schedule: Q01DX009 (ip), vehicle: saline 113 % of control | dose: 3.12 mg/kg/injection, schedule: Q01DX009 (ip), vehicle: saline 118 % of control and 121 % of control | dose: 3.13 mg/kg/injection, schedule: Q01DX009 (ip), vehicle: saline 109 % of control | dose: 3.13 mg/kg/injection, schedule: Q04DX003 (ip), vehicle: saline with Tween-80 104 % of control | dose: 4.7 mg/kg/injection, schedule: Q01DX009 (ip), vehicle: saline 86 % of control | dose: 6.25 mg/kg/injection, schedule: Q04DX003 (ip), vehicle: saline with Tween-80 100 % of control and 112 % of control

CCOCCOCCOC(C)Oc1ccc(Br)cc1 (stereo not drawn)
inactive: [4] 104 % of control | [5] 100 % of control | [6] 104 % of control

Cc1ccc2c(c1)nc(-c1ccccn1)n2CCc1ccccn1
inactive: dose: 50.0 mg/kg/injection, schedule: Q04DX002 (ip), vehicle: Klucel (hydroxypropylcellulose) (HPC) 100 % of control | dose: 100.0 mg/kg/injection, schedule: Q04DX002 (ip), vehicle: Klucel (hydroxypropylcellulose) (HPC) 102 % of control | dose: 200.0 mg/kg/injection, schedule: Q04DX002 (ip), vehicle: Klucel (hydroxypropylcellulose) (HPC) 105 % of control

COc1cc2c(cc1O)CCCC(C)(C)C2=O
inactive: [2] 95 % of control | [3] 96 % of control

COC1C(CO)OC(Oc2ccc(C(=C3CCCCC3)c3ccc(O)cc3)cc2)C(O)C1O (stereo not drawn)
inactive: [16] 95 % of control | [17] 95 % of control | [18] 94 % of control

Nc1c(Br)cc(Br)c2c1C(=O)c1c(cccc1S(=O)(=O)O)C2=O
inactive: [7] 102 % of control | [8] 98 % of control | [9] 107 % of control

NC1CCNC(O)[N-]1.NC1CCNC(O)[N-]1.[Br][Pd][Br] (stereo not drawn)
inactive: [15] 99 % of control | dose: 120.0 mg/kg/injection, schedule: Q01DX005 (ip), vehicle: Klucel (hydroxypropylcellulose) (HPC) 100 % of control | dose: 240.0 mg/kg/injection, schedule: Q01DX005 (ip), vehicle: Klucel (hydroxypropylcellulose) (HPC) 102 % of control

O=C(Nc1ncc([N+](=O)[O-])s1)c1cccnc1
inactive: dose: 3.12 mg/kg/injection, schedule: Q01DX009 (ip), vehicle: suspension in saline 101 % of control | dose: 6.25 mg/kg/injection, schedule: Q01DX009 (ip), vehicle: suspension in saline 87 % of control | dose: 12.5 mg/kg/injection, schedule: Q01DX009 (ip), vehicle: saline 91 % of control | dose: 12.5 mg/kg/injection, schedule: Q01DX009 (ip), vehicle: suspension in saline 87 % of control | [16] 100 % of control | [18] 88 % of control

C=C(C)CC1C(=O)OC(=O)C1(CC(=C)C)CC(=C)C (stereo not drawn)
inactive: [16] 100 % of control | [17] 99 % of control | [18] 93 % of control

c1cc2c3c(ccc2c2c1OCN(C1CCCCC1)C2)OCN(C1CCCCC1)C3
inactive: dose: 3.12 mg/kg/injection, schedule: Q01DX005 (ip), vehicle: Klucel (hydroxypropylcellulose) (HPC) 96 % of control | dose: 6.25 mg/kg/injection, schedule: Q01DX005 (ip), vehicle: Klucel (hydroxypropylcellulose) (HPC) 91 % of control | dose: 12.5 mg/kg/injection, schedule: Q01DX005 (ip), vehicle: Klucel (hydroxypropylcellulose) (HPC) 90 % of control | [14] 94 % of control

Source: PubChem BioAssay AID330 (DTP/NCI, 2004)
